Laboratory results reported in PMC6214812, “The mycosporine-like amino acids porphyra-334 and shinorine are antioxidants and direct antagonists of Keap1-Nrf2 binding” (Biochimie, 2018).
Where two headings read alike, the source gives them in different places.

What was measured:
[1] = target: T1, Kelch-like ECH-associated protein 1 (Keap1) (Homo sapiens, UniProt Q14145); assay: FP competition with FITC-(βAla)-DEETGEF-OH; thermal shift (ΔTm […] °C at […]); assay type: binding
T1 construct: Kelch-repeat domain
T1 sequence (Q14145 321-609 limits assumed): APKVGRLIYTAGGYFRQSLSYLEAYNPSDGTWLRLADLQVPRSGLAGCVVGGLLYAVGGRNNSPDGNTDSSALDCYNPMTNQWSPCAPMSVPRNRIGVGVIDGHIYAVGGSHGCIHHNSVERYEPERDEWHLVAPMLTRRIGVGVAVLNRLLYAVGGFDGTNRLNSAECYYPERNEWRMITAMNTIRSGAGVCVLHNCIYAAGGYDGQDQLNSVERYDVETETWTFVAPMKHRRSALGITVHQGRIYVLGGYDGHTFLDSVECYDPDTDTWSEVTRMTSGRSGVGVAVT

[2] = target: T1, Kelch-like ECH-associated protein 1 (Keap1); assay: as above; assay type: binding; remark: listed apart in the source

Compound: COC1=C(NCC(=O)O)C[C@@](O)(CO)C/C1=N\[C@@H](CO)C(=O)O [shinorine]
- IC50 [1]: ~100 µM

Compound: COC1=C(NCC(=O)O)CC(O)(CO)CC1=NC(C(=O)O)C(C)O (centres unmarked) [porphyra-334]
- IC50 [2]: ~100 µM
